The text below walks through data of paper PMC8881573, “Inhibition of SRP-dependent protein secretion by the bacterial alarmone (p)ppGpp” (Nature Communications, 2022).

For one assay, the target named is T1, (Ec)FtsY-NG (Escherichia coli, UniProt P10121).
T1 construct: purified NG domains of (Ec)Ffh, (Ec)FtsY and (Bs)Ffh; His6 (C); made in house; host or cells: E. coli BL21 (DE3)
In words: Isothermal titration calorimetry (ITC) of nucleotide binding. Details: species or system E. coli. To be noted: NG domain, 25 °C, one set of sites model. The procedure:
(§1) Ligands and proteins (purified NG domains of (Ec)Ffh, (Ec)FtsY and (Bs)Ffh) were diluted with a buffer containing 20 mM HEPES-Na (pH 7.5), 200 mM NaCl, 20 mM MgCl2 and 20 mM KCl. The NG domains of (Ec)Ffh, (Ec)FtsY and (Bs)Ffh were titrated in the sample-cell at a nominal concentration of 25 µM each. The nucleotides GDP, GTP, ppGpp and pppGpp (Jena Bioscience, Germany) were placed in the syringe and their concentrations were predetermined by absorbance at 252 nm to saturate the protein samples during the titrations. All the measurements were performed at 25 °C with the instrument MicroCal PEAQ-ITC (©Malvern Panalytical) with a method consisting of 13 injections (first 0.4 µL, and the rest 3 µL each) and 150 s of spacing. The raw data (see source) were processed with the MicroCal PEAQ-ITC Analysis Software (©Malvern Panalytical) using the “one set of sites” models.
Background: In ITC the heat of successive injections is recorded.

The target in assay [1] is T2, (Bs)Ffh-NG (Bacillus subtilis, UniProt P37105).
T2 construct: purified NG domains of (Ec)Ffh, (Ec)FtsY and (Bs)Ffh; His6 (N); made in house; host or cells: E. coli Rosetta pLysS
T2 sequence (P37105 1-297 limits assumed): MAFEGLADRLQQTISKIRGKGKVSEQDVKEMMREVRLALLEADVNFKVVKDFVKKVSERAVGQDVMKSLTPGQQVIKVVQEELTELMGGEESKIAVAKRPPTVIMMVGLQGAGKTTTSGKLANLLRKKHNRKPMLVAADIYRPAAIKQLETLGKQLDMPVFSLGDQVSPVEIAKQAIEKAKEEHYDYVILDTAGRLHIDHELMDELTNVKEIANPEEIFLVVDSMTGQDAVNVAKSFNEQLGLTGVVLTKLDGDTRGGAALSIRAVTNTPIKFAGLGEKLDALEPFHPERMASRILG
The assay is described as above. Further details: species or system B. subtilis. Particulars: NG domain, 25 °C, one set of sites model. The protocol:
as §1

Assay [2] concerns the target T2, (Bs)Ffh-NG. Nature of the assay: Microscale thermophoresis (MST) ligand binding. Further details: species or system B. subtilis. Particulars: NG domain labeled with NT 647, 21 °C. The procedure: Ligand binding assays with purified NG domains of (Ec)Ffh, (Ec)FtsY and (Bs)Ffh proteins were carried out by microscale thermophoresis (MST)[80]. All experiments were performed on a Monolith NT.115 (NanoTemper Technologies GmbH, Munich, Germany; software: NanoTemper Control Version 2.0.2.29) at 21 °C (red LED power was set to 50–100% and infrared laser power to 75%). After labeling of primary amines within (Ec)Ffh, (Ec)FtsY, and (Bs)Ffh (50 µM each) with the dye NT 647 (according to the manufacturers protocol), the proteins were re-buffered in SEC buffer containing 20 mM HEPES-Na, 20 mM KCl, 20 mM MgCl2, 200 mM NaCl (final pH 7.5), 10 mg ml^−1 BSA and 0.007% Tween. Two-hundred nanomolar of (Ec)Ffh, (Ec)FtsY, and (Bs)Ffh were titrated with GDP, GTP, ppGpp, and pppGpp starting from a concentration ranging between 0.75 and 3 mM, respectively. At least six independent MST experiments per ligand and protein were recorded at 680 nm and analyzed using NanoTemper Analysis version 1.5.37 and 1.2.009, and Origin8G software suits.
In general terms: MST reads how a fluorescent partner responds to local heating, with and without ligand.

T1 sequence (P10121 197-497): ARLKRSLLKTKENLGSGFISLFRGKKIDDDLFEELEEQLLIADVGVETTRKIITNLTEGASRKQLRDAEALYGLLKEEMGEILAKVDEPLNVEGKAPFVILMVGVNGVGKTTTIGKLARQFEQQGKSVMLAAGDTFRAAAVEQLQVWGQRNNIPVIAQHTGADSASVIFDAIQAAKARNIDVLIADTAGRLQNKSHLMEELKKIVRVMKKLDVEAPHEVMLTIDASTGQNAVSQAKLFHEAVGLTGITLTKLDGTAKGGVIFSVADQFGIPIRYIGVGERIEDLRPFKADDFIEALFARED

In the case of `Nc1nc2c(ncn2[C@@H]2O[C@H](COP(=O)(O)OP(=O)(O)O)[C@@H](OP(=O)(O)OP(=O)(O)O)[C@H]2O)c(=O)[nH]1` [ppGpp], the dissociation constant (Kd) at (Ec)FtsY-NG is 21.7 ± 5.4 µM; at (Bs)Ffh-NG [1], 4.8 ± 1.8 µM; at (Bs)Ffh-NG [2], 32.2 ± 7.5 µM.

Turning to `Nc1nc2c(ncn2[C@@H]2O[C@H](COP(=O)(O)OP(=O)(O)OP(=O)(O)O)[C@@H](OP(=O)(O)OP(=O)(O)O)[C@H]2O)c(=O)[nH]1` [pppGpp], the Kd at (Bs)Ffh-NG [2] was determined as 27.2 ± 9.8 µM.

A word on the Kd: it is a measure of binding affinity in units of concentration. A low value points to a tighter complex.
